Source: US5773236A, “Assay for glutathiane transferase using polyhaloaryl-substituted reporter molecules” (Molecule Probes, Inc., priority 1997, dated 1998)

How the values were obtained:
[1] = tested on: NIH-3T3 cells (lacZ negative); test: β-galactosidase activity detection in cells by microscopy, lacZ negative (Example 61); assay type: cell-based; settings: 50 nM, 37° C., 35 minutes
Protocol: (§1) NIH-3T3 cells (lacZ negative) and CRE BAG 2 cells (lacZ positive) are obtained from American Type Culture Collection Co., Rockville, Md. They are grown in a humidified atmosphere of 5% CO2 in D-MEM supplemented with 10% bovine calf serum, 50 μg/mL gentamycin, 300 μg/mL L-glutamine and 10 mM HEPES, pH 7.4. A 50 μM stock solution of Compound 9 is prepared in water: dimethylformamide (DMF) (1:1). NIH-3T3 and CRE BAG 2 cells are trypsinized, washed and suspended in D-MEM containing 10% BCS. 10 μL of the cell suspension is added to 0.989 mL of the same medium. 1 μL of the 50 μM substrate solution is added to the cells to obtain a final concentration of 50 nM. Incubation is carried out at 37° C. for 35 minutes. Cells are centrifuged to form a pellet, supernatant is discarded and cells are resuspended in D-MEM with 10% BCS. Cells are mounted on slides and observed by fluorescence microscopy.

[2] = tested on: β-galactosidase; test: Glycosidase analysis in vitro (Example 60); assay type: biochemical; settings: substrate 333 μM, room temperature, 20 minutes
Protocol: The stock reagents required are: 1) Compound 9 (Example 7) 5 mM in ethanol; 2) Reaction buffer: 0.3M potassium phosphate, 3 mM MgCl2 pH 7.5; 3) β-galactosidase (Boehringer-Mannheim), dissolved at 10 mg/mL in 0.05M potassium phosphate, pH 7; 4) Enzyme diluent: 0.01M Tris HCl, 0.01M MgCl2, 0.01M NaCl, 0.01M β-mercaptoethanol, pH 7.5. 130 μL of the reaction buffer is added to a series of rows and columns in a microplate. To each of the wells with reaction buffer is added 10 μL of the substrate solution. The enzyme stock solution is diluted to 1 mg/mL, 0.1 mg/mL, 10 μg/mL, 1 μg/mL, 0.1 μg/mL and 0 μg/mL. To the wells containing reaction buffer and substrate, 10 μL of each of the different concentration enzyme solutions is added. The wells containing 0 μg/mL enzyme serve as controls. The plate is allowed to incubate at room temperature for 20 minutes. Fluorescence of each well is determined using a 485 nm excitation filter, a 530 nm emission filter and gain setting of 40. Using the above conditions, as little as 6.7 ng/mL enzyme can be detected using the substrate at 333 μM concentration. The fluorescence response is linear until the enzyme concentration reaches ~6.7 μg/mL.

[3] = tested on: β-D-galactosidase; test: Detection of β-D-galactosidase on a membrane blot (Example 64); assay type: biochemical; settings: nitrocellulose, room temperature, 1 hour plus 30 minutes
Protocol: The reagents used are: 1) Compound 9, 5 mM in ethanol; 2) β-D-galactosidase, 10 mg/mL in 0.05M potassium phosphate, pH 7; 3) Enzyme diluent: 0.01M Tris, 0.01M MgCl2, 0.01M mercaptoethanol, 0.01M NaCl, 1% BSA, pH 7.5; 4) 1% BSA in PBS, pH 7.2; 5) Reaction buffer: 0.3M potassium phosphate, 3 mM MgCl2, pH 7.5; 6) Wash buffer: 20 mM Tris, 137 mM NaCl, 0.5% Tween 20, pH 7.5. A stock solution of β-galactosidase is diluted in enzyme diluent to obtain solutions with the following concentrations: 1 μg/μL, 0.1 μg/μL, 0.01 μg/μL, 1 ng/μL, 0.1 ng/μL and 0 ng/μL. 1 μL of each diluted solution is spotted on a two nitrocellulose membranes (1"×1"), pore size 0.45 μM, and dried immediately by blowing argon on the membranes. One of the membranes is blocked by treatment with 1% BSA in PBS for 20 minutes at room temperature. The following mixture is prepared: 4.95 mL of reaction buffer+[…] of Compound 9 stock solution. 2 mL of this solution is added to each of the blots and incubation is carried out at room temperature for 1 hour. The blots are washed once with 2 mL of wash buffer. 0.5 mL of the mixture described above is once again added to the blots and incubation is carried out at room temperature for 30 minutes. The blots are allowed to dry and an image is obtained by illuminating with reflected UV light at 254 nm. […]

[4] = tested on: CRE BAG 2 cells (lacZ positive); test: β-galactosidase / lacZ detection in cells by microscopy, lacZ positive (Example 61); assay type: cell-based; settings: 50 nM, 37° C., 35 minutes
Protocol: as §1

O=C1OC2(c3ccc(O[C@@H]4O[C@H](CO)[C@H](O)[C@H](O)[C@H]4O)cc3Oc3cc(O[C@@H]4O[C@H](CO)[C@H](O)[C@H](O)[C@H]4O)ccc32)c2ccc(NC(=O)c3c(F)c(F)c(F)c(F)c3F)cc21 [Compound 9, 5-(pentafluorobenzoylamino)fluorescein di-β-D-galactopyranoside]
staining of cells, fluorescence microscopy [1]: green fluorescent lysosomes with very little cytoplasmic background
enzyme concentration up to which fluorescence response is linear [2]: ~ 6.7 μg/mL
lowest enzyme concentration detected [2]: 6.7 ng/mL
amount of enzyme detected [3]: ~ 100 ng
staining of cells, fluorescence microscopy [4]: green fluorescent lysosomes with well-stained green fluorescent cytoplasm
